Results reported in PMC3700073, “Synthesis and Biological Activity of New Thiopyrano[2,3-d]thiazoles Containing a Naphthoquinone Moiety” (Scientia Pharmaceutica, 2013).
Like-named read-outs stand apart in the source and are kept apart here.

Columns and labels:
[1] = test system: NCI/ADR-RES (breast cancer); assay: NCI five-dose assay; assay type: cell-based; details: Homo sapiens
SK-OV-3 (ovarian cancer) = assay: NCI five-dose assay; assay type: cell-based; details: Homo sapiens, SK-OV-3, SK-OV-3, ovarian cancer
60 cancer cell lines [2] = assay: NCI single-concentration screen, 60 cancer cell lines; assay type: cell-based, human; details: single concentration 10^−5 M
OVCAR-8 (ovarian cancer) = assay: NCI five-dose assay; assay type: cell-based; details: Homo sapiens, OVCAR-8, OVCAR-8, ovarian cancer
SNB-75 (CNS cancer) = assay: NCI five-dose assay; assay type: cell-based; details: Homo sapiens, SNB-75, SNB-75, CNS cancer
UACC-62 (melanoma) = assay: NCI five-dose assay; assay type: cell-based; details: Homo sapiens, UACC-62, UACC-62, melanoma
RPMI-8226 (leukemia) = assay: NCI five-dose assay; assay type: cell-based; details: Homo sapiens, RPMI-8226, RPMI-8226, leukemia
NCI-H522 (NSCL cancer) = assay: NCI five-dose assay; assay type: cell-based; details: Homo sapiens
HCC-2998 (colon cancer) = assay: NCI five-dose assay; assay type: cell-based; details: Homo sapiens, HCC 2998, HCC-2998, colon cancer
UACC-257 (melanoma) = assay: NCI five-dose assay; assay type: cell-based, human; details: for GI50: Homo sapiens, UACC-257, UACC-257, melanoma
BT-549 (breast cancer) = assay: NCI five-dose assay; assay type: cell-based; details: Homo sapiens, BT-549, BT-549, breast cancer
HT29 (colon cancer) = assay: NCI five-dose assay; assay type: cell-based; details: Homo sapiens, HT-29, HT29, colon cancer
MALME-3M (melanoma) [3] = assay: NCI five-dose assay; assay type: cell-based; details: Homo sapiens
SN12C (renal cancer) = assay: NCI five-dose assay; assay type: cell-based; details: Homo sapiens
60 cancer cell lines [4] = assay: cells; details: Homo sapiens
COLO 205 (colon cancer) = assay: NCI five-dose assay; assay type: cell-based; details: Homo sapiens, COLO 205, COLO 205, colon cancer
[5] = test system: MDA-MB-435 (breast cancer); assay: NCI single-concentration screen; assay type: cell-based, human; details: 10^−5 M
A498 (renal cancer) = assay: NCI five-dose assay; assay type: cell-based; details: Homo sapiens
HS 578T (breast cancer) = assay: NCI five-dose assay; assay type: cell-based, human; details: for GI50: Homo sapiens, Hs-578T, HS 578T, breast cancer
(melanoma) = assay: NCI single-concentration screen; assay type: cell-based, human; details: SK-MEL-25 (melanoma), 10^−5 M
HCT-116 (colon cancer) = assay: NCI five-dose assay; assay type: cell-based; details: Homo sapiens, HCT-116, HCT-116, colon cancer
male mice = assay: Acute toxicity in vivo, median lethal dose; details: intraperitoneal, approximate LD50 (Litchfield and Wilcoxon)
Experimental: The synthesized compounds were evaluated for their approximate LD50 in male mice. The mice were kept under a constant temperature and humidity in sterile cages with water and food. The stock solutions of the compounds used in this study were prepared immediately before usage and injected intraperitoneally (ip). The LD50 values (Tab. 3) were calculated using the method described by Litchfield and Wilcoxon.
The median lethal dose (LD50), the dose of the selected compounds that causes 50% mortality in mice, was determined from dose–response curves with at least four doses by the method of Litchfield and Wilcoxon.

HL-60(TB) (leukemia) = assay: NCI five-dose assay; assay type: cell-based; details: Homo sapiens, HL-60, HL-60(TB)
IGROV-1 (ovarian cancer) = assay: NCI five-dose assay; assay type: cell-based; details: Homo sapiens
NCI-H226 (NSCL cancer) = assay: NCI five-dose assay; assay type: cell-based; details: Homo sapiens
[6] = test system: MDA-MB-468 (breast cancer); assay: NCI five-dose assay; assay type: cell-based; details: Homo sapiens, repeated testing
SF-295 (CNS cancer) = assay: NCI single-concentration screen; assay type: cell-based, human; details: 10^−5 M
KM12 (colon cancer) = assay: NCI five-dose assay; assay type: cell-based; details: Homo sapiens
[7] = test system: Mycobacterium tuberculosis H37Rv strain (ATCC 27294); assay: Antimycobacterial pre-screening at 6.25 μg/mL (BACTEC 460 radiometric system); assay type: cell-based; details: M. tuberculosis H37Rv; for inhibition at 6.25 µg/mL: 6.25 μg/mL; for MIC90: pre-screening, read-out: Estimation of MIC90
M14 (melanoma) = assay: NCI single-concentration screen; assay type: cell-based, human; details: 10^−5 M
MALME-3M (melanoma) [8] = assay: NCI single-concentration screen; assay type: cell-based, human; details: 10^−5 M
SK-MEL-5 (melanoma) = assay: NCI single-concentration screen; assay type: cell-based, human; details: 10^−5 M
[9] = read-out: GI50 MG_MID, over the cell line panel
[10] = read-out: GI50 Range (min – max), over the cell line panel
[11] = read-out: LC50 MG_MID, over the cell line panel
[12] = read-out: LC50 Range (min – max), over the cell line panel

SMILES: COc1cc(C2C3=C(Sc4[nH]c(=O)sc42)C(=O)c2ccccc2C3=O)ccc1O (stereo not shown) [Compound 4i, 11-(4-Hydroxy-3-methoxyphenyl)-3,11-dihydro-2H-benzo[6,7]thiochromeno[2,3-d]-[1,3]thiazole-2,5,10-trione]
- GI50 [1]: 8.39 µM
- GI50 ([1]; repeated testing): 4.5 µM
- GI50 (SK-OV-3 (ovarian cancer)): 8.28 µM
- GI50 (SK-OV-3 (ovarian cancer); repeated testing): 5.72 µM
- Mean growth % (60 cancer cell lines [2]): 17.75%
- GI50 (OVCAR-8 (ovarian cancer)): 2.85 µM
- GI50 (OVCAR-8 (ovarian cancer); repeated testing): 2.05 µM
- GI50 (SNB-75 (CNS cancer)): 1.26 µM
- GI50 (SNB-75 (CNS cancer); repeated testing): 0.67 µM
- GI50 (UACC-62 (melanoma)): 0.43 µM
- GI50 (UACC-62 (melanoma); repeated testing): 1.59 µM
- GI50 (RPMI-8226 (leukemia)): 1.93 µM
- GI50 (RPMI-8226 (leukemia); repeated testing): 1.33 µM
- GI50 (NCI-H522 (NSCL cancer)): 1.96 µM
- GI50 (NCI-H522 (NSCL cancer); repeated testing): 2.12 µM
- GI50 (HCC-2998 (colon cancer)): 3.77 µM
- GI50 (HCC-2998 (colon cancer); repeated testing): 3.24 µM
- GI50 (UACC-257 (melanoma)): 1.31 µM
- GI50 (UACC-257 (melanoma); repeated testing): 0.22 µM
- TGI of the most sensitive cell line (UACC-257 (melanoma); UACC-257 /melanoma/, repeated testing): (0.22 / 1.82) μM
- GI50 (BT-549 (breast cancer)): 2.74 µM
- GI50 (BT-549 (breast cancer); repeated testing): 0.92 µM
- GI50 (HT29 (colon cancer)): 2.35 µM
- GI50 (HT29 (colon cancer); repeated testing): 2.02 µM
- GI50 (MALME-3M (melanoma) [3]): 0.72 µM
- GI50 (MALME-3M (melanoma) [3]; repeated testing): 1.05 µM
- GI50 (SN12C (renal cancer); repeated testing): 3.02 µM
- GI50 (60 cancer cell lines [4]; [9]): 1.95 µM
- GI50 (60 cancer cell lines [4]; read-out: GI50 MG_MID, over the cell line panel, repeated testing): 1.7 µM
- GI50 (60 cancer cell lines [4]; [10]): 0.16 to 41.4 µM
- GI50 (60 cancer cell lines [4]; read-out: GI50 Range (min – max), over the cell line panel, repeated testing): 0.22 to 5.72 µM
- CC50 (60 cancer cell lines [4]; [11]): 42.7 µM
- CC50 (60 cancer cell lines [4]; read-out: LC50 MG_MID, over the cell line panel, repeated testing): 38 µM
- CC50 (60 cancer cell lines [4]; [12]): 4.14 to 92.4 µM
- CC50 (60 cancer cell lines [4]; read-out: LC50 Range (min – max), over the cell line panel, repeated testing): 4.93 to 86.6 µM
- GI50 (COLO 205 (colon cancer)): 2.08 µM
- GI50 (COLO 205 (colon cancer); repeated testing): 1.68 µM
- Growth % of the most sensitive cell line [5]: −48.22%
- GI50 (A498 (renal cancer)): 1.95 µM
- GI50 (A498 (renal cancer); repeated testing): 2.11 µM
- TGI of the most sensitive cell line (HS 578T (breast cancer); HS 578T /breast cancer/): 0.27 / 1.09 μM
- GI50 (HS 578T (breast cancer)): 0.27 µM
- GI50 (HS 578T (breast cancer); repeated testing): 0.65 µM
- Growth % of the most sensitive cell line ((melanoma)): −74.12%
- GI50 (HCT-116 (colon cancer)): 3.36 µM
- GI50 (HCT-116 (colon cancer); repeated testing): 2.46 µM
- LD50ip (male mice): 280 mg/kg
- GI50 (HL-60(TB) (leukemia)): 2.01 µM
- GI50 (HL-60(TB) (leukemia); repeated testing): 1.26 µM
- GI50 (IGROV-1 (ovarian cancer)): 2.48 µM
- GI50 (NCI-H226 (NSCL cancer)): 1.74 µM
- GI50 (NCI-H226 (NSCL cancer); repeated testing): 2.85 µM
- GI50 [6]: 1.75 µM
- Growth % of the most sensitive cell line (SF-295 (CNS cancer)): −50.25%
- GI50 (KM12 (colon cancer)): 2.25 µM
- GI50 (KM12 (colon cancer); repeated testing): 2.51 µM

SMILES: COc1cc(C2C3=C(Sc4[nH]c(=O)sc42)C(=O)c2ccccc2C3=O)ccc1OCc1ccccc1 (stereo not shown) [Compound 4e, 11-[4-(Benzyloxy)-3-methoxyphenyl]-3,11-dihydro-2H-benzo[6,7]thiochromeno[2,3-d]-[1,3]thiazole-2,5,10-trione]
- GI50 [1]: 22.7 µM
- GI50 (SK-OV-3 (ovarian cancer)): 31.7 µM
- GI50 (OVCAR-8 (ovarian cancer)): 13.9 µM
- GI50 (SNB-75 (CNS cancer)): 7.76 µM
- GI50 (UACC-62 (melanoma)): 12.5 µM
- GI50 (RPMI-8226 (leukemia)): 14.5 µM
- GI50 (NCI-H522 (NSCL cancer)): 15.9 µM
- GI50 (HCC-2998 (colon cancer)): 16.6 µM
- GI50 (UACC-257 (melanoma)): 11.3 µM
- GI50 (BT-549 (breast cancer)): 13.4 µM
- GI50 (HT29 (colon cancer)): 11.2 µM
- GI50 (MALME-3M (melanoma) [3]): 7.12 µM
- GI50 (SN12C (renal cancer)): 15.3 µM
- GI50 (60 cancer cell lines [4]; [9]): 12 µM
- GI50 (60 cancer cell lines [4]; [10]): 2.62 to 32.6 µM
- CC50 (60 cancer cell lines [4]; [11]): 85.1 µM
- CC50 (60 cancer cell lines [4]; [12]): 26.3 to 98.7 µM
- GI50 (COLO 205 (colon cancer)): 10.3 µM
- inhibition at 6.25 µg/mL [7]: 15%
- MIC90 [7]: > 6.25 µg/mL
- GI50 (A498 (renal cancer)): 20.5 µM
- GI50 (HS 578T (breast cancer)): 4.52 µM
- GI50 (HCT-116 (colon cancer)): 15.6 µM
- LD50ip (male mice): >1000 mg/kg
- GI50 (HL-60(TB) (leukemia)): 15.2 µM
- GI50 (IGROV-1 (ovarian cancer)): 15.4 µM
- GI50 (NCI-H226 (NSCL cancer)): 19.2 µM
- GI50 (KM12 (colon cancer)): 16.9 µM

SMILES: COc1ccc(C2C3=C(Sc4[nH]c(=O)sc42)C(=O)c2ccccc2C3=O)cc1OC (stereo not shown) [Compound 4f, 11-(3,4-Dimethoxyphenyl)-3,11-dihydro-2H-benzo[6,7]thiochromeno[2,3-d][1,3]thiazole-2,5,10-trione]
- GI50 [1]: 7.07 µM
- GI50 (SK-OV-3 (ovarian cancer)): 13.6 µM
- Mean growth % (60 cancer cell lines [2]): 1.77%
- GI50 (OVCAR-8 (ovarian cancer)): 4.02 µM
- GI50 (SNB-75 (CNS cancer)): 6.64 µM
- GI50 (UACC-62 (melanoma)): 2.21 µM
- Growth % of the most sensitive cell line (M14 (melanoma)): −80.36%
- GI50 (RPMI-8226 (leukemia)): 4.64 µM
- GI50 (NCI-H522 (NSCL cancer)): 7.91 µM
- GI50 (UACC-257 (melanoma)): 6.13 µM
- GI50 (BT-549 (breast cancer)): 2.84 µM
- GI50 (HT29 (colon cancer)): 3.15 µM
- GI50 (MALME-3M (melanoma) [3]): 2.12 µM
- GI50 (SN12C (renal cancer)): 3.68 µM
- GI50 (60 cancer cell lines [4]; [9]): 4.19 µM
- GI50 (60 cancer cell lines [4]; [10]): 1.26 to 17.7 µM
- CC50 (60 cancer cell lines [4]; [11]): 47.9 µM
- CC50 (60 cancer cell lines [4]; [12]): 5.34 to 93 µM
- Growth % of the most sensitive cell line (MALME-3M (melanoma) [8]): −66.70%
- GI50 (COLO 205 (colon cancer)): 3.37 µM
- inhibition at 6.25 µg/mL [7]: 0%
- MIC90 [7]: > 6.25 µg/mL
- GI50 (A498 (renal cancer)): 4.91 µM
- GI50 (HS 578T (breast cancer)): 3.71 µM
- GI50 (HCT-116 (colon cancer)): 3.47 µM
- LD50ip (male mice): 410 mg/kg
- GI50 (HL-60(TB) (leukemia)): 1.98 µM
- GI50 (IGROV-1 (ovarian cancer)): 3.35 µM
- GI50 (NCI-H226 (NSCL cancer)): 5.43 µM
- Growth % of the most sensitive cell line (SK-MEL-5 (melanoma)): −96.40%
- GI50 (KM12 (colon cancer)): 5.99 µM
